Common to all, as to assay type: in vivo
Series [1] in a line: Pharmacokinetic parameters in SD rat plasma. On the procedure:
(§1) 4 healthy SD rats aged 6-9 weeks were selected and randomly divided into two groups, with 2 rats in each group. One group was given the test compound at 2 mg/kg by intravenous injection, and the other group was given the test compound at 10 mg/kg by intragastric administration. Plasma samples were collected at 0.083, 0.25, 0.5, 1.0, 2.0, 4.0, 6.0, 8.0, and 24 h after administration for the intravenous injection group and intragastric administration group, respectively. Quantitative analysis of all biological samples was carried out by LC-MS/MS method, and the WinNonlin™ Version 6.3 (Pharsight, Mountain View, CA) pharmacokinetic software was used to calculate the relevant pharmacokinetic parameters by the non-compartmental model linear logarithmic trapezoidal method. AUC0-last represents area under the plasma concentration-time curve from time zero to the last detectable concentration time point; p.o. represents oral; i.v. represents intravenous injection; T1/2 represents half-life; CL represents clearance rate; Vd represents apparent volume of distribution; Cmax represents peak concentration; Tmax represents time to peak; F % represents oral bioavailability.
as §1, with “healthy male” for “healthy”

Series [2] has as its system SD rats. Nature of the series: Effect on spontaneous activities of SD rats. The settings on record: SD rat, 30 mg/kg, recorded 60 min from 30 minutes after administration, Mean±SEM; blank vehicle 31.91 ± 3.92. On the procedure:
Test purpose: to judge the effect of the test compound on the activity of rats by measuring the spontaneous activity distance of rats in a period of time.
Test scheme: 12 male SD rats aged 7 weeks were adapted in the laboratory 1 day before the start of the test. On the day of the experiment, the rats were randomly divided into 2 groups according to their body weight, with 6 rats in each group, and the rats were given blank vehicle and compound 8 (30 mg/kg), respectively. The animals were put into a test box 30 minutes after administration, and the distance data of animal activity were recorded every 5 min with Any-maze software, and the recording was continued for 60 min. By comparing the total distance of animal activity within the recording time, it is judged whether the drug has a significant effect on the spontaneous activity of the animal. The experimental data were represented by the mean±[…] (Mean±SEM). The statistical method adopted one-way analysis of variance plus Dunnett's multiple comparisons. P<0.05 was represented as *, p<0.01 was represented as **, and p<0.001 was represented as ***.

Series [3] has as its system SD rats. Nature of the series: Effect on sleep in SD rats by electroencephalogram/electromyography telemetry. The settings on record: SD rat EEG, Mean±SEM; for Sleep latency: blank vehicle 32 ± 3.1; for NREM sleep time within 7 h after administration: blank vehicle 102 ± 18; for Total awake time within 7 h after administration: blank vehicle 303 ± 20. On the procedure: Test purpose: to evaluate the effect of test substance on sleep in SD rats by electroencephalogram/electromyography telemetry (EEG).
Test scheme: 36 male SD rats aged 5-6 weeks needed an adaptation period of 5-15 days after arriving at the facility, during which the experimental animals were placed in an alternating light and dark environment for 12 h for adaptation (light on: 19:00; light off: 07:00) to adjust the rhythm time, and the health of the animals was monitored every day. Animals needed to be surgically implanted with electroencephalogram electrode and electromyography electrode for later telemetry data collection. On the day of the operation experiment, the animals were anesthetized with Zoletil (i.p., 20 mg/kg) combined with xylazine (i.p., 8 mg/kg). After anesthesia, the animals were fixed by brain stereotaxic apparatus. After the head has hair clipped and was disinfected, the skin of the head was cut, and the four corners were clamped with hemostats to fully expose the skull. The periosteum was peeled off and wiped with dry absorbent cotton until the surface was clean. A hole was drilled according to the type of implanter, and an electrode was implanted and in contact with the dura mater. The electrode was fixed on the skull with dental cement. At the same time, the cement dripping on the tissue and skin was cleaned up. The 2 electromyography electrodes were respectively inserted into the neck muscles in parallel, and the two ends were fixed with sutures to prevent their ends from touching each other. The implanter was then placed under the skin, and the surgical wound was sutured and sterilized. After the operation, the rats were carefully placed in a clean recovery cage, lying on their sides to ensure a smooth airway. The rats were raised in a single cage and placed in a shielded recovery room, in which the light and dark automatically alternated for 12 h (light on: 19:00, light off: 07:00), the temperature was 20-26° C., and the relative humidity was 40-70%. After the operation, the animals were given nursing care for 3 days. The surgical incision was treated with cephradine powder locally, gentamicin at 4-8 mg/kg was subcutaneously administered, and meloxicam at 0.1 mL/rat was injected subcutaneously for 3 consecutive days. The experiment was carried out after 7-10 days of recovery and the animals were randomly divided into groups according to their weight the day before the experiment.
On the day of the experiment, the basic electroencephalogram and electromyography were recorded first, and then the administration began. During and after the administration, the electroencephalogram and electromyography were recorded continuously until 24 h after the administration. Raw data were collected by DSI system Ponemah software and analyzed by NeuroScore software. The experimental data were represented by the mean±standard error (Mean±SEM), and statistical analysis was performed using the one-way variance method. Compared with the blank vehicle group, P<0.05 indicated a significant difference, and represented as *; P<0.01 indicated a very significant difference, and represented as **; P<0.001 indicated an extremely significant difference, and represented as ***.

[4] abbreviates: male, Sprague-Dawley (SD), plasma, iv, i.v. 2 mg/kg.
[5] abbreviates: male, Sprague-Dawley (SD), plasma, po, p.o. 10 mg/kg.

Marks after values point to notes of the source that are not given here.

Turning to `COc1ccc(-n2nccn2)c(C(=O)N2C(c3nc4ccc(OC)cc4[nH]3)CC3CC32)c1` (stereo not drawn) [Compound 8], in series [1] (setting [4]), the AUC(0-t) stood at 1.76 µM·h, the clearance was 44 mL/min/kg and the half-life was 12 min. Besides, in series [1] (male, Sprague-Dawley (SD), plasma, iv, i.v. 2 mg/kg, read-out: Vdss), the Vd turned out to be 0.57 L/kg. Moreover, in series [1] (setting [5]), the AUC(0-t) was 1.45 µM·h, the Cmax is 1030 nM and the Tmax worked out at 15 min. Further, the F in series [1] (p.o. 10 mg/kg vs i.v. 2 mg/kg) is 17%. In the series with SD rats [2], this compound gave a Spontaneous activity distance of 14.73 ± 1.38 meters. In addition, in the series with SD rats [3] (5 mg/kg), the Sleep latency stood at 27 ± 8.1 min, the “NREM sleep time within 7 h after administration” value (“NREM sleep time within 7 h” below) came to 129 ± 17 min and the “Total awake time within 7 h after administration” value (“Total awake time within 7 h” below) was 274 ± 19 min. In the series with SD rats [3] (10 mg/kg), the Sleep latency is given as 15 ± 2.9** min, the “NREM sleep time within 7 h” value turned out to be 144 ± 16 min and the “Total awake time within 7 h” value was determined as 250 ± 21 min. Moreover, in the series with SD rats [3] (30 mg/kg), the Sleep latency is on record as 7 ± 1.3*** min, the “NREM sleep time within 7 h” value is 171 ± 11** min and the “Total awake time within 7 h” value was 228 ± 12* min.

For orientation: AUC(0-t) means the area under the concentration-time curve up to a stated or last time point. A low value points to less exposure. The clearance is the volume of plasma or blood freed of the substance per unit of time. Read a high clearance as efficient removal. For orientation: half-life means the time needed for the level to fall by half in the phase considered. High values mean slow decline, low ones rapid decline. As a reminder, the Cmax is the maximum level reached in the sampled fluid or tissue. As usually defined, the Tmax is the time from dosing to the highest level.

These data come from patent US12583841B2, “Tetrahydropyrrolocyclic compound and application thereof” (Breakthrough Pharmaceuticals Inc., priority 2021, dated 2026).
